From article PMC10729476, “Functional characterization of four opsins and two G alpha subtypes co-expressed in the molluscan rhabdomeric photoreceptor” (BMC Biology, 2023)

What was measured:
Limax xenopsin = target: T1, Limax xenopsin (Ambigolimax valentianus, UniProt A0A455SJK2); assay: UV-VIS absorption spectroscopy of reconstituted purified pigment; type: binding; conditions: chromophore added to expressing cells; covalent (retinylidene Schiff base to conserved Lys, general for opsins); 1% dodecyl maltoside extraction; 4 °C
T1 construct: wild-type xenopsin in pMT vector, C-terminal rho 1D4 tag (ETSQVAPA; tag stated, 1D4 purification), HEK293S cells, extracted in dodecyl maltoside
T1 sequence (A0A455SJK2 1-421): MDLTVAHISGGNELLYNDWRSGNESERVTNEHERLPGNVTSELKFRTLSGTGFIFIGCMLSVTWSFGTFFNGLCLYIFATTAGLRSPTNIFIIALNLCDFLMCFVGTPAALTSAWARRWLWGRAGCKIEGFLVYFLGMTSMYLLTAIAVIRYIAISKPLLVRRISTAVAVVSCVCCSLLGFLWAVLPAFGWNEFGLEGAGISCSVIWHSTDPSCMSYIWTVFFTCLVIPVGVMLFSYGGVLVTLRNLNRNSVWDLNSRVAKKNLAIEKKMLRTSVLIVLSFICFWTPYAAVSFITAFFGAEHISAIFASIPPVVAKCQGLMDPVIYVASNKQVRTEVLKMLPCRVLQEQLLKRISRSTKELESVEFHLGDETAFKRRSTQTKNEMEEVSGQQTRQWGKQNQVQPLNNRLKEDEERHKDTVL

Limax Opn5A = target: T2, Limax Opn5A (Ambigolimax valentianus, UniProt A0A455SGG5); assay: as above; type: binding; conditions: chromophore added to expressing cells; covalent (retinylidene Schiff base to conserved Lys, general for opsins); 1% dodecyl maltoside extraction; 4 °C; low expression, impurities, spectrum fitted with
T2 construct: wild-type Opn5A in pMT vector, C-terminal rho 1D4 tag (ETSQVAPA; tag stated, 1D4 purification), HEK293S cells, extracted in dodecyl maltoside
T2 sequence (A0A455SGG5 1-425): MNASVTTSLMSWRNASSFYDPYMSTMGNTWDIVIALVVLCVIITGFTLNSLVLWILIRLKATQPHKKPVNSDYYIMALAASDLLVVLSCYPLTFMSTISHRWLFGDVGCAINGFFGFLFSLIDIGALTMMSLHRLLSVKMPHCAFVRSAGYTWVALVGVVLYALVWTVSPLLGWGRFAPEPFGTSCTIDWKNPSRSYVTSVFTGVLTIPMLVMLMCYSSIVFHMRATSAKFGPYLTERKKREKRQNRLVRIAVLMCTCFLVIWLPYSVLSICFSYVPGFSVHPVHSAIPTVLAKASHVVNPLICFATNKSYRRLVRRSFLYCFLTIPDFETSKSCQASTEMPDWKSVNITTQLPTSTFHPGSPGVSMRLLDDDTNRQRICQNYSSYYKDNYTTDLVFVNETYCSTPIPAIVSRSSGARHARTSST

With `CC1=C(/C=C/C(C)=C/C=C\C(C)=C\C=O)C(C)(C)CCC1` [11-cis retinal] the “UV-VIS absorption spectroscopy of reconstituted purified pigment” value (Limax xenopsin) was “After the addition of the 11-cis retinal, opsin-based pigments were extracted” and the “UV-VIS absorption spectroscopy of reconstituted purified pigment” value (Limax Opn5A) was “After the addition of the 11-cis retinal, opsin-based pigments were extracted”.
